How the values were obtained:
Experiment in all cases: Test B pre-/postemergence plant response
Type in all cases: in vivo
[1] = tested on: Russian thistle (Salsola iberica); settings: Preemergence; for Russian Thistle plant response rating: scale 0 to 100
Outline: (§1)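 Seeds were sown and sprayed preemergence, while plants at 2 to 18 cm (1- to 4-leaf stage) got postemergence sprays. Compounds were formulated in a non-phytotoxic solvent mixture with surfactant. After 13 to 15 days in a greenhouse, injury was rated visually against untreated controls, 0 (no effect) to 100 (complete control).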

[2] = tested on: bermudagrass (Cynodon dactylon); settings: for Bermudagrass plant response rating: 8 g ai/ha
Outline: as §1

[3] = tested on: blackgrass (Alopecurus myosuroides); settings: for Blackgrass plant response rating: 8 g ai/ha
Outline: as §1

[4] = tested on: catchweed bedstraw (Galium aparine); settings: Preemergence; for Galium plant response rating: scale 0 to 100
Outline: as §1

[5] = tested on: cocklebur (Xanthium strumarium); settings: for Cocklebur plant response rating: 8 g ai/ha
Outline: as §1

corn (Zea mays) = tested on: corn (Zea mays)
Outline: as §1

[6] = tested on: downy bromegrass (Bromus tectorum); settings: for Bromegrass, Downy plant response rating: 8 g ai/ha
Outline: as §1

kochia (Kochia scoparia) = settings: for Kochia plant response rating: postemergence, 0-100 scale; for Plant response rating, Kochia: Postemergence
Outline: as §1

[7] = tested on: lambsquarters (Chenopodium album); settings: for Lambsquarters plant response rating: postemergence, 0-100 scale; for Plant response rating, Lambsquarters: Postemergence
Outline: as §1

[8] = tested on: morningglory (Ipomoea coccinea)
Outline: as §1

soybean (Glycine max) = settings: for Soybean plant response rating: postemergence, 0-100 scale; for Plant response rating, Soybean: Postemergence
Outline: as §1

[9] = tested on: surinam grass (Brachiaria decumbens)
Outline: as §1

[10] = tested on: wheat (Triticum aestivum)
Outline: as §1

[11] = tested on: yellow nutsedge (Cyperus esculentus)
Outline: as §1

[12] = 31 g ai/ha, scale 0 to 100 (0 no effect, 100 complete control)
[13] = 62 g ai/ha, 0 to 100 scale, 0 no effect, 100 complete control
[14] = Postemergence, 16 g ai/ha, scale 0 to 100
[15] = Postemergence, 31 g ai/ha, scale 0 to 100
[16] = Postemergence, 62 g ai/ha, scale 0 to 100, 0 no effect, 100 complete control
[17] = Preemergence, 16 g ai/ha, scale 0 to 100 (0 no effect, 100 complete control)
[18] = Preemergence, 31 g ai/ha, scale 0 to 100 (0 no effect, 100 complete control)
[19] = Preemergence, 62 g ai/ha, 0 to 100 scale, 0 no effect, 100 complete control
[20] = 8 g ai/ha, postemergence, 0-100 scale
[21] = Preemergence, 8 g ai/ha, scale 0 to 100
[22] = Preemergence, 16 g ai/ha, scale 0 to 100
[23] = 62 g ai/ha, scale 0 to 100, 0 no effect, 100 complete control
[24] = 16 g ai/ha, postemergence, 0-100 scale

With Cc1cc(-c2ccc(Cl)cc2)nn1-c1c(OC(=S)N(C)C)cnn(C)c1=O [Compound 69] the “Plant response rating, Russian Thistle” value [1, 12] was 0, the “Plant response rating, Russian Thistle” value [1, 13] was 0 and the “Russian Thistle plant response rating” value ([1]; 8 g ai/ha) was 0. For the same compound, the “Russian Thistle plant response rating” value ([1]; 16 g ai/ha) was 0, the “Bermudagrass plant response rating” value ([2]; postemergence, 0-100 scale) was 20 and the “Plant response rating, Bermudagrass” value [2, 14] was 65. The “Plant response rating, Bermudagrass” value [2, 15] was 95, the “Plant response rating, Bermudagrass” value [2, 16] was 98 and the “Bermudagrass plant response rating” value ([2]; Preemergence, scale 0 to 100 (0 no effect, 100 complete control)) was 0. The “Plant response rating, Bermudagrass” value [2, 17] was 0, the “Plant response rating, Bermudagrass” value [2, 18] was 0 and the “Plant response rating, Bermudagrass” value [2, 19] was 0. For the same compound, the “Blackgrass plant response rating” value ([3]; postemergence, 0-100 scale) was 10, the “Plant response rating, Blackgrass” value [3, 14] was 35 and the “Plant response rating, Blackgrass” value [3, 15] was 35. For the same compound, the “Plant response rating, Blackgrass” value [3, 16] was 90, the “Plant response rating, Blackgrass” value [3, 17] was 0 and the “Plant response rating, Blackgrass” value [3, 18] was 40. The “Plant response rating, Blackgrass” value [3, 19] was 70, the “Blackgrass plant response rating” value ([3]; Preemergence, scale 0 to 100) was 0 and the “Plant response rating, Galium” value [4, 12] was 0. For the same compound, the “Plant response rating, Galium” value [4, 13] was 0, the “Galium plant response rating” value ([4]; 8 g ai/ha) was 0 and the “Galium plant response rating” value ([4]; 16 g ai/ha) was 0. For the same compound, the “Cocklebur plant response rating” value ([5]; postemergence, 0-100 scale) was 0, the “Plant response rating, Cocklebur” value [5, 14] was 0 and the “Plant response rating, Cocklebur” value [5, 15] was 0. The “Plant response rating, Cocklebur” value [5, 16] was 0, the “Plant response rating, Cocklebur” value [5, 17] was 0 and the “Plant response rating, Cocklebur” value [5, 18] was 0. The “Plant response rating, Cocklebur” value [5, 19] was 0, the “Cocklebur plant response rating” value ([5]; Preemergence, scale 0 to 100) was 0 and the “Corn plant response rating” value (corn (Zea mays); [20]) was 0. The “Plant response rating, Corn” value (corn (Zea mays); [14]) was 0, the “Plant response rating, Corn” value (corn (Zea mays); [15]) was 0 and the “Plant response rating, Corn” value (corn (Zea mays); [16]) was 20. For the same compound, the “Plant response rating, Corn” value (corn (Zea mays); [18]) was 0, the “Plant response rating, Corn” value (corn (Zea mays); [19]) was 0 and the “Corn plant response rating” value (corn (Zea mays); [21]) was 0. The “Corn plant response rating” value (corn (Zea mays); [22]) was 0, the “Bromegrass, Downy plant response rating” value ([6]; postemergence, 0-100 scale) was 0 and the “Plant response rating, Bromegrass, Downy” value [6, 14] was 0. For the same compound, the “Plant response rating, Bromegrass, Downy” value [6, 15] was 15, the “Plant response rating, Bromegrass, Downy” value [6, 16] was 45 and the “Plant response rating, Bromegrass, Downy” value [6, 17] was 0. The “Plant response rating, Bromegrass, Downy” value [6, 18] was 0, the “Plant response rating, Bromegrass, Downy” value [6, 19] was 0 and the “Bromegrass, Downy plant response rating” value ([6]; Preemergence, scale 0 to 100) was 0. For the same compound, the “Kochia plant response rating” value (kochia (Kochia scoparia); 8 g ai/ha) was 0, the “Kochia plant response rating” value (kochia (Kochia scoparia); 16 g ai/ha) was 0 and the “Plant response rating, Kochia” value (kochia (Kochia scoparia); 31 g ai/ha, scale 0 to 100) was 95. The “Plant response rating, Kochia” value (kochia (Kochia scoparia); [23]) was 98, the “Lambsquarters plant response rating” value ([7]; 8 g ai/ha) was 0 and the “Lambsquarters plant response rating” value ([7]; 16 g ai/ha) was 0. For the same compound, the “Plant response rating, Lambsquarters” value ([7]; 31 g ai/ha, scale 0 to 100) was 0, the “Plant response rating, Lambsquarters” value [7, 23] was 0 and the “Morningglory plant response rating” value [8, 20] was 0. For the same compound, the “Morningglory plant response rating” value [8, 24] was 0, the “Plant response rating, Morningglory” value [8, 15] was 0 and the “Plant response rating, Morningglory” value [8, 16] was 0. The “Plant response rating, Morningglory” value [8, 18] was 0, the “Plant response rating, Morningglory” value [8, 19] was 0 and the “Morningglory plant response rating” value [8, 21] was 0. For the same compound, the “Morningglory plant response rating” value [8, 22] was 0, the “Soybean plant response rating” value (soybean (Glycine max); 8 g ai/ha) was 0 and the “Soybean plant response rating” value (soybean (Glycine max); 16 g ai/ha) was 0. The “Plant response rating, Soybean” value (soybean (Glycine max); 31 g ai/ha, scale 0 to 100) was 0, the “Plant response rating, Soybean” value (soybean (Glycine max); [23]) was 20 and the “Surinam Grass plant response rating” value [9, 20] was 65. The “Surinam Grass plant response rating” value [9, 24] was 75, the “Plant response rating, Surinam Grass” value [9, 15] was 80 and the “Plant response rating, Surinam Grass” value [9, 16] was 95. The “Plant response rating, Surinam Grass” value [9, 18] was 15, the “Plant response rating, Surinam Grass” value [9, 19] was 35 and the “Surinam Grass plant response rating” value [9, 21] was 0. The “Surinam Grass plant response rating” value [9, 22] was 0, the “Wheat plant response rating” value [10, 20] was 0 and the “Wheat plant response rating” value [10, 24] was 35. The “Plant response rating, Wheat” value [10, 15] was 40, the “Plant response rating, Wheat” value [10, 16] was 80 and the “Plant response rating, Wheat” value [10, 18] was 0. For the same compound, the “Plant response rating, Wheat” value [10, 19] was 0, the “Wheat plant response rating” value [10, 22] was 0 and the “Nutsedge, Yellow plant response rating” value [11, 20] was 0. For the same compound, the “Nutsedge, Yellow plant response rating” value [11, 24] was 0, the “Plant response rating, Nutsedge, Yellow” value [11, 15] was 0 and the “Plant response rating, Nutsedge, Yellow” value [11, 16] was 0. The “Plant response rating, Nutsedge, Yellow” value [11, 18] was 0, the “Plant response rating, Nutsedge, Yellow” value [11, 19] was 0 and the “Nutsedge, Yellow plant response rating” value [11, 21] was 0. For the same compound, the “Nutsedge, Yellow plant response rating” value [11, 22] was 0.

Source: patent US20100267561A1, “HERBICIDAL PYRIDAZINONE DERIVATIVES” (priority 2007, published 2010)
